25 compounds from ChEMBL document CHEMBL5036363, “Discovery and Lead Optimization of Benzene-1,4-disulfonamides as Oxidative Phosphorylation Inhibitors” (J Med Chem, 2022) can be followed below.

Activity calls are given as the source filed them. A value given as a limit tells only on which side of the number the result lay.

The nature of data set [1]: Microsomal stability in human liver microsomes assessed as half life at 10 uM measured upto 60 mins by LC-MS/MS analysis. The format is ADME, Microsome. The conditions noted are these: for half-life at 10 µM: liver microsomes; for t1/2: microsomes, 1 h, 10 µM. (In general: Microsomes from liver hold many membrane-bound enzymes, among them those of drug oxidation.)
In data set [2] the test system is MIA PaCa-2. Nature of the data set: Inhibition of oxidative phosphorylation in human MIA PaCa-2 cells assessed as reduction in ATP production incubated for 24 hrs in glucose-containing medium by CellTiter-glo luminescence assay. It is filed as functional, cell-based.
A short description of data set [3]: Microsomal stability in mouse liver microsomes assessed as half life at 10 uM measured upto 60 mins by LC-MS/MS analysis. The format is ADME, Microsome. The conditions noted are these: for t1/2: microsomes, 1 h, 10 µM.
The test system of data set [4] is MIA PaCa-2. Nature of the data set: Cytotoxicity against human MIA PaCa-2 cells assessed as inhibition of cell growth incubated for 3 days in glucose-containing medium by MTT assay. The conditions noted are these: MIA PaCa-2, 72 h. The format is functional, cell-based. (In general: Tetrazolium dyes change colour on reduction, which living cells bring about.)
Data set [5] has as its system MIA PaCa-2. Nature of the data set: Cytotoxicity against human MIA PaCa-2 cells assessed as inhibition of cell growth incubated for 7 days in glucose-containing medium by MTT assay. The format is functional, cell-based. The conditions noted are these: MIA PaCa-2, 168 h.
For data set [6], the system named is MIA PaCa-2. As to the kind of experiment: Cytotoxicity against human MIA PaCa-2 cells assessed as inhibition of cell growth incubated for 3 days in galactose-containing medium by MTT assay. The format is functional, cell-based. The conditions noted are these: MIA PaCa-2, 72 h.
Data set [7] can be described thus: Inhibition of oxidative phosphorylation complex I in human MIA PaCa-2 cells assessed as reduction in NAD+/NADH ratio incubated for 48 hrs by NAD/NADH-Glo assay. The conditions noted are these: MIA PaCa-2, 48 h. The format is cell-based.
Data set [8] in a line: Inhibition of oxidative phosphorylation in human MIA PaCa-2 cells assessed as reduction in ATP production incubated for 24 hrs in galactose-containing medium by CellTiter-glo luminescence assay. It is filed as functional, cell-based. The conditions noted are these: MIA PaCa-2, 24 h.
A short description of data set [9]: Kinetic aqueous solubility of the compound by turbidimetric method. It is filed as physicochemical. The conditions noted are these: buffer.
In a further data set the test system is BXPC-3. Nature of the data set: Cytotoxicity against human BXPC-3 cells assessed as inhibition of cell growth incubated for 7 days in glucose-containing medium by MTT assay. It is filed as functional, cell-based. The conditions noted are these: BXPC-3, 168 h.
Data set [10] is described as follows: Cytotoxicity against human UM16 cells assessed as inhibition of cell growth. It is filed as functional, cell-based.
Data set [11] in a line: Drug metabolism in mouse liver microsomes assessed as formation of de-ethylated diethyl-sulfonamide moiety metabolite at 10 uM measured after 7 to 30 mins by LC-MS/MS analysis. The format is ADME, Microsome. The conditions noted are these: time 7-30 min.
Data set [12] is described as follows: Drug metabolism in mouse liver microsomes assessed as formation of hydroxylated piperidine ring moiety metabolite at 10 uM measured after 7 to 30 mins by LC-MS/MS analysis. The conditions noted are these: time 7-30 min. The format is ADME, Microsome.
Data set [13] can be described thus: Inhibition of mitochondrial complex I in human HepG2 cells assessed as reduction in oxygen consumption rate incubated for 6 hrs by seahorse XF analyser based assay. The format is cell-based.

On to `CC(C)c1noc(C2CCN(C(=O)[C@@H]3CCCN(S(=O)(=O)c4ccc(S(=O)(=O)C(C)C)cc4)C3)CC2)n1`, for which, in data set [1], the half-life (in general, the time needed for the level to fall by half in the phase considered) at 10 µM is over 60 min. Further, the inhibition result in the data set with MIA PaCa-2 [2] is “inactive”. Also, in data set [3], the t1/2 is 32.58 min. For the same compound, the IC50 (usually the concentration that inhibits the measured activity by half) was 20 nM with MIA PaCa-2 [4]; 50 nM in the data set with MIA PaCa-2 [5]; over 10000 nM in the data set with MIA PaCa-2 [6]; 7.1 nM in [7]; 17.2 nM in data set [8].
As for `CCOC(=O)[C@@H]1CCCN(S(=O)(=O)c2ccc(S(=O)(=O)N(CC)CC)cc2)C1`, the solubility (in general, the dissolved amount per volume that the medium holds) in data set [9] was over 200 µM. The t1/2 in data set [1] was 0.64 min; in data set [3], 0.7 min. Further, the inhibition entry in the data set on MIA PaCa-2 [2] was “inactive”. Also, the IC50 with MIA PaCa-2 [4] is 90 nM; with BXPC-3, 600 nM; with MIA PaCa-2 [5], 400 nM; in the data set on MIA PaCa-2 [6], over 10000 nM; in [10] it was 310 nM; in [7], 312 nM. In addition, the IC50 in data set [8] is 118 nM.
As to `CCN(CC)S(=O)(=O)c1ccc(S(=O)(=O)N2CCC[C@@H](C(=O)NC3COC3)C2)cc1`, the t1/2 in data set [1] is listed as 18.5 min; in data set [3], 27.1 min. Moreover, the inhibition entry in the data set with MIA PaCa-2 [2] was “inactive”. In addition, the IC50 in the data set on MIA PaCa-2 [4] was 900 nM; in the data set with BXPC-3, 13800 nM; with MIA PaCa-2 [5], 2300 nM; in the data set with MIA PaCa-2 [6], over 10000 nM; in [7] it was 1660 nM; in data set [8] it was 951 nM.
In the case of `CCN(CC)C(=O)c1ccc(S(=O)(=O)N2CCC[C@@H](C(=O)N3CCN(c4nc(C(C)C)no4)CC3)C2)cc1`, the figures for the t1/2 in data set [1] and in [3] were 12.76 min and 10.47 min, respectively. For the same compound, the IC50 with MIA PaCa-2 [4] is 70 nM; with BXPC-3 it was 1400 nM; in the data set on MIA PaCa-2 [5], 100 nM; with MIA PaCa-2 [6], over 10000 nM.
Turning to `CCC(CC)S(=O)(=O)c1ccc(S(=O)(=O)N2CCC[C@@H](C(=O)N3CCN(c4nc(C(C)C)no4)CC3)C2)cc1`, the t1/2 in data set [1] worked out at 2.53 min; in data set [3], 7.77 min. The IC50 with BXPC-3 amounted to 120 nM; in the data set with MIA PaCa-2 [5] it was 50 nM.
For `CC(C)c1noc(N2CCN(C(=O)[C@@H]3CCCN(S(=O)(=O)c4ccc(S(=O)(=O)C(C)C)cc4)C3)CC2)n1`, the half-life at 10 µM in data set [1] and in [3] (liver microsomes) was over 60 min in each case. Further, in the data set with MIA PaCa-2 [2], the inhibition result is “inactive”. The IC50 was 70 nM in the data set on MIA PaCa-2 [5], over 10000 nM in the data set with MIA PaCa-2 [6], 30.4 nM in data set [7] and 29.2 nM in [8].
For `CCOC(=O)C1CCCN(S(=O)(=O)c2ccc(S(=O)(=O)N(CC)CC)cc2)C1` (racemic), the IC50 in data set [10] is 580 nM.
As to `CC(C)NS(=O)(=O)c1ccc(S(=O)(=O)N2CCC[C@@H](C(=O)N3CCN(c4nc(C(C)C)no4)CC3)C2)cc1`, the t1/2 in data set [1] is 3.36 min; in data set [3], 29.36 min. In addition, the IC50 in the data set with MIA PaCa-2 [4] is 200 nM; with BXPC-3, 2600 nM; in the data set with MIA PaCa-2 [5] it was 2600 nM; in the data set with MIA PaCa-2 [6] it was over 10000 nM.
On to `CCOC(=O)[C@H]1CCCN(S(=O)(=O)c2ccc(S(=O)(=O)N(CC)CC)cc2)C1`, for which the IC50 in [10] is 9470 nM.
As for `CCN(CC)S(=O)(=O)c1ccc(S(=O)(=O)N2CCC[C@@H](C(=O)N3CCN(c4nc(C(C)C)no4)CC3)C2)cc1`, the Drug metabolism result in data set [11] and in data set [12] was “Metabolite_Detected” throughout. Further, the values for the t1/2 in data set [1] and in [3] were 1.7 min and 7.7 min, respectively. Besides, in the data set with MIA PaCa-2 [2], the inhibition result was “inactive”. Further, the IC50 is 50 nM in the data set with MIA PaCa-2 [5], over 10000 nM in the data set on MIA PaCa-2 [6], 8.2 nM in data set [7] and 30.7 nM in data set [8].
For the compound `CCOC(=O)[C@@H]1CCCN(S(=O)(=O)c2ccc(S(=O)(=O)N(CC)CC)c(F)c2)C1`, the IC50 with MIA PaCa-2 [4] is 200 nM; in the data set with BXPC-3, 1600 nM; in the data set with MIA PaCa-2 [5], 900 nM; with MIA PaCa-2 [6], over 10000 nM.
As to `CCN(CC)S(=O)(=O)c1ccc(S(=O)(=O)N2CCC[C@@H](c3cc(C)no3)C2)cc1`, the IC50 is 2700 nM with MIA PaCa-2 [4], 7700 nM in the data set with BXPC-3, 4900 nM in the data set with MIA PaCa-2 [5] and over 10000 nM in the data set with MIA PaCa-2 [6].
As for `CCOC(=O)[C@@H]1CCCN(S(=O)(=O)c2ccc(S(=O)(=O)N3CCOCC3)cc2)C1`, the IC50 with MIA PaCa-2 [4] is 4100 nM; in the data set with BXPC-3 it was 23400 nM; in the data set on MIA PaCa-2 [5], 23500 nM; in the data set on MIA PaCa-2 [6], over 10000 nM.
Take `CCOC(=O)C12CC(CN(S(=O)(=O)c3ccc(S(=O)(=O)N(CC)CC)cc3)C1)C2`: the IC50 was 400 nM in the data set on MIA PaCa-2 [4], 1200 nM in the data set with BXPC-3, 1000 nM in the data set with MIA PaCa-2 [5] and over 10000 nM with MIA PaCa-2 [6].
Taken in the same sequence, the figures for `CCOC(=O)[C@@H]1CCCN(S(=O)(=O)c2ccc3cc(S(=O)(=O)N(CC)CC)ccc3c2)C1` were over 3000 nM, 13400 nM, 7400 nM and over 10000 nM.
Taken in the same sequence, the figures for `CCN(CC)S(=O)(=O)c1ccc(S(=O)(=O)N2CCC[C@@H](C(=O)NC3CN(C(=O)C4CC4)C3)C2)cc1` were 3100 nM, 18500 nM, 2800 nM and over 10000 nM.
`CCOC(=O)[C@@H]1CCCN(S(=O)(=O)c2ccc(S(=O)(=O)N(C)C)cc2)C1`: the IC50 is 300 nM with MIA PaCa-2 [4], 1000 nM in the data set with BXPC-3, 900 nM in the data set with MIA PaCa-2 [5] and over 10000 nM with MIA PaCa-2 [6].
In the case of `CCN(CC)S(=O)(=O)c1ccc(S(=O)(=O)N2CCC[C@@H](C(=O)N(C)C(C)C)C2)cc1`, the IC50 in the data set with MIA PaCa-2 [4] was 1400 nM; in the data set with BXPC-3, 7700 nM; in the data set on MIA PaCa-2 [5], 6200 nM; with MIA PaCa-2 [6], over 10000 nM.
Turning to `CCN(CC)S(=O)(=O)c1ccc(S(=O)(=O)N2CCC[C@@H](c3nc(C)no3)C2)cc1`, the IC50 with MIA PaCa-2 [4] is 700 nM; with BXPC-3, 2900 nM; in the data set with MIA PaCa-2 [5], 4100 nM; in the data set with MIA PaCa-2 [6], over 10000 nM.
In the case of `N=C(N)NC(=N)NCCc1ccccc1` [PHENFORMIN], in data set [13], the IC50 is 3800 nM.
As to `CCN(CC)S(=O)(=O)c1ccc(S(=O)(=O)N2CCC[C@@H](C(=O)N3CCN(C(=O)OC(C)(C)C)CC3)C2)cc1`, the IC50 with MIA PaCa-2 [4] is 10 nM; in the data set on BXPC-3, 200 nM; in the data set with MIA PaCa-2 [5] it was 70 nM; with MIA PaCa-2 [6], over 10000 nM.
Taken in the same sequence, the figures for `CCOC(=O)[C@@H]1CCN(S(=O)(=O)c2ccc(S(=O)(=O)N(CC)CC)cc2)C1` were 1500 nM, 10000 nM, 8600 nM and over 10000 nM.
In the case of `CCN(CC)S(=O)(=O)c1ccc(S(=O)(=O)N2CCC[C@@H](C(=O)NC3CN(C(=O)OC(C)(C)C)C3)C2)cc1`, the IC50 with MIA PaCa-2 [4] is 100 nM; in the data set with BXPC-3, 1800 nM; in the data set with MIA PaCa-2 [5] it was 200 nM; in the data set on MIA PaCa-2 [6], over 10000 nM.
With `CCOC(=O)[C@@H]1CCCN(S(=N)(=O)c2ccc(S(=O)(=O)N(CC)CC)cc2)C1` (some centres undefined), the IC50 in the data set on MIA PaCa-2 [4] is 4700 nM; in the data set with BXPC-3, 13300 nM; in the data set on MIA PaCa-2 [5], 12100 nM; with MIA PaCa-2 [6] it was over 10000 nM.
In the case of `CCOC(=O)C1CCCCN1S(=O)(=O)c1ccc(S(=O)(=O)N(CC)CC)cc1` (centres undefined), the IC50 in the data set with MIA PaCa-2 [4] is over 3000 nM; with BXPC-3 it was 12900 nM; with MIA PaCa-2 [5] it was 24600 nM; in the data set with MIA PaCa-2 [6], over 10000 nM.
